Data set [1] has as its system Bacillus thuringiensis P86. The experiment in a line: MIC, agar well diffusion. Type of data set: cell-based. Particulars: Bacillus thuringiensis P86 (thucin A1 producer strain), LB, lowest concentration forming a clear zone, highest concentration 60 μM. The method, then: (§1) Antibacterial activity against various indicator strains were determined by the agar well diffusion method. Briefly, each of the indicator strains (10^6 CFU/mL) was spread on a LB agar plate (45 °C) with wells (diameter = 6 mm). Then, 50 μL bacteriocin solution was added to the wells. The plate was kept at 4 °C for 2 h and subsequently incubated at a temperature suitable for the growth of the indicator strains for 12 h, followed by the measurement of inhibition zone to assess the antimicrobial activity.
(§2) The minimum inhibitory concentrations (MICs) of the bacteriocins against various indicator strains were determined by a previously described method. Briefly, the antimicrobial activities of different final concentrations bacteriocin solutions were measured by the agar well diffusion method described above. The MIC was defined at the lowest concentration of samples that could form a clear zone of inhibition.
(In general: A growth-free zone around the sample is the usual read-out of agar diffusion tests.)

The test system of data set [2] is Bacillus cereus ATCC 14579. Type of data set: cell-based. Particulars: ATCC 14579, 12 h. As for the experimental part:
as §1, §2

In another data set the test system is Bacillus cereus UW85. Type of data set: cell-based. Conditions: UW85, 2 h. The method, then:
as §1, §2

Another data set has as its system Bacillus firmus DS-1. Type of data set: cell-based. Particulars: 2 h. The method, then: as §1, §2
The next data set deals with Bacillus pumilus SCG1. The data set is classed as cell-based. Particulars: 2 h. The method, then: as §1, §2
Another data set has as its system Bacillus siamensis HCX05. Type of data set: cell-based. Conditions: 2 h. As for the experimental part: as §1, §2
The test system of another data set is Bacillus simplex SYY08. The data set is classed as cell-based. Particulars: 2 h. As for the experimental part: as §1, §2
The next data set deals with Bacillus subtilis 168. Type of data set: cell-based. Conditions: 168, 2 h. The method, then:
as §1, §2

For the next data set, the system named is Bacillus subtilis Bsn5. The data set is classed as cell-based. Conditions: Bsn5, 2 h. The method, then: as §1, §2
Data set [3] relates to Bacillus thuringiensis BMB171. The data set is classed as cell-based. Particulars: 2 h. As for the experimental part: as §1, §2
Data set [4] relates to Glutamicibacter arilaitensis HCX33. Type of data set: cell-based. Particulars: 2 h. The method, then: as §1, §2
Data set [5] deals with Listeria monocytogenes LM201. Type of data set: cell-based. Conditions: LM201, 2 h. The method, then:
as §1, §2

The subject of data set [6] is Listeria monocytogenes LM605. Type of data set: cell-based. Conditions: LM605, 2 h. The method, then:
as §1, §2

The subject of data set [7] is Lysinibacillus fusiformis ZZY15-1. The data set is classed as cell-based. Particulars: 2 h. As for the experimental part: as §1, §2
For another data set, the system named is Rhodococcus sp. ZCH08. Type of data set: cell-based. Conditions: 2 h. The method, then:
as §1, §2

For data set [8], the system named is Staphylococcus aureus ATCC 43300. Type of data set: cell-based. Particulars: ATCC 43300, 2 h. The method, then: as §1, §2
The subject of data set [9] is Staphylococcus succinus SYY04. Type of data set: cell-based. Conditions: 2 h. As for the experimental part: as §1, §2
For the next data set, the target named is proteinase K (Parengyodontium album, UniProt P06873). The experiment in a line: Protease stability, residual antimicrobial activity. The data set is classed as in vitro ADME. Particulars: 4× MIC mixed 1:1 (v/v) with proteinase K 1 mg/mL (≥ 40 U/mg), 37 °C, 2 h; agar well diffusion, B. cereus ATCC 14579; triplicate. As for the experimental part:
as §1
Nisin A was commercial nisin A (Sigma-Aldrich, Shanghai, China) purified by HPLC as described above. The purity of nisin A and thucin A1 was all greater than 95% based on the ratio of absorption peak area at 210 nm. The stability assay was performed by previously described method with some modifications. To compare the pH stability of thucin A1 and nisin A, the bacteriocin solutions (1× , 2× , 4× , 8× MIC) were adjusted to pH 2.0, 3.0, 4.0, 5.0, 6.0, 7.0, 8.0, 9.0, 10.0, 11.0 and 12.0 with 0.5 M NaOH or 0.5 M HCl solution, followed by incubation at 37 °C for 4 h. The residual antimicrobial activity was tested after neutralizing the sample to pH 6.0. […] The indicator strain used in this experiment was B. cereus ATCC 14579 and the antimicrobial activity was determined with the agar well diffusion method as described above. […]

In general, MIC refers to the lowest concentration found to suppress growth. A lower MIC goes with inhibition by little substance.

No end group written: not given here. *: point of attachment. For = O=C*

Sequence of proteinase K (P06873 106-384): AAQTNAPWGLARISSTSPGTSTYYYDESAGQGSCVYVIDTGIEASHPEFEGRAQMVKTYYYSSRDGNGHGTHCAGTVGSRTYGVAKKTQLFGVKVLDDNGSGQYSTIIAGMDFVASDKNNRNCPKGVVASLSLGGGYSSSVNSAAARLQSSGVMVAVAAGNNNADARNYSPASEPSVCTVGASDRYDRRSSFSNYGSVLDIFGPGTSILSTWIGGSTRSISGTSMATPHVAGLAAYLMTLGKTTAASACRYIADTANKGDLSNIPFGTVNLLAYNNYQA

Consider “For-MIAFLRIVAQLGARAARWAWANKDRVLGWIRDGMAIDWIINKINDMVS [Thucin A1]”, for which the MIC was 7.5 µM in [1]; 1.88 µM in [2]; 1.88 µM with Bacillus cereus UW85; 3.75 µM against Bacillus firmus DS-1; 3.75 µM in the data set with Bacillus pumilus SCG1; 3.75 µM against Bacillus siamensis HCX05. The MIC came to 1.88 µM against Bacillus simplex SYY08; 3.75 µM with Bacillus subtilis 168; 3.75 µM against Bacillus subtilis Bsn5; 1.88 µM in [3]; 7.5 µM in data set [4]; 0.47 µM in data set [5]. The MIC in data set [6] was 0.47 µM; in data set [7], 7.5 µM; against Rhodococcus sp. ZCH08, 15 µM; in [8] it was 15 µM; in data set [9] it was 15 µM. The “residual antimicrobial activity after digestion with proteinase K” value at proteinase K is recorded as “completely lost its antimicrobial activity”.

(Values after paper PMC9484092, “Three novel leaderless bacteriocins have antimicrobial activity against gram-positive bacteria to serve as promising food biopreservative” (Microbial Cell Factories, 2022).)
